Here are results for 3 substances from US20180066031A1, “ENZYMATICALLY-CLEAVABLE PEPTIDE AMPHIPHILES” (The University of Chicago, priority 2016, published 2018).

The target of this test is T1, Recombinant human liver cathepsin-B (Homo sapiens, UniProt P07858).
T1 construct: purchased Sigma Aldrich
In words: Cathepsin-B cleavage testing of peptide-AMC substrates. Particulars: for AMC fluorescence intensity change over time following addition of catB: 1 mM peptide in activation buffer pH 5, emission 440 nm. Format: biochemical. How it is done: Peptide-AMC: Recombinant human liver cathepsin-B (Sigma Aldrich) was used for the in vitro experiments. 0.25 μM DTT used in 0.25 μM HEPES in PBS (pH 5) as activation buffer. Peptides were dissolved in activation buffer to a final concentration as 1 mM. 0.5 μL of catB enzyme or vehicle control was added into the peptide solution. Plate reader analysis with Tecan Infinite M200 PRO plate reader (Mannedorf, Switzerland) with triplicates of each sample were performed in 96 well plates. The intensity of the excited dye at 388 nm was measured at 440 nm. Dual dye-labeled peptide on resin: CatB and activation buffer were prepared as described above. Dye-labeled peptides were again left on the resin. Resin was washed with methanol, dried in a vacuum overnight, and then immersed in PBS (pH 7.4) for 1 hour at 37° C. PBS was then drained followed by addition of 1 mL activation buffer and 5 μL of catB for 100 mg of resin. Control testing was performed in the same solution without the addition of catB. Supernatant was collected after 3 hours and 24 hours. The florescence intensity of triplicates of each sample was measured with plate reader FAM (λexc=485 nm, λem=535 nm) and Tamra (λexc=520 nm, λem=620 nm).
A variety of enzyme-cleavable peptide sequences used in antibody-drug and peptide-drug conjugates were tested for efficacy in the systems herein (Ref. B35, B40-B43; incorporated by reference in their entireties).
The experimentally cleavable VC-PABA sequence and a control, non-cleavable triple glycine (GGG) linker, were conjugated to a 7-amino-4-methylcoumarin (AMC) dye, useful in studying protease activity and specificity (VC-PABA-AMC and GGG-AMC) (FIGS. 9A and 9B) (Ref. B45; incorporated by reference in its entirety). The electron group of the AMC fluorophore is localized, and thus remains quenched, when linked to the VC-PABA or GGG peptide substrate. When the covalent bond between the peptide and AMC is cleaved, this group de-localizes resulting in fluorescence detected at 440 nm (excitation: 348 nm) allowing for real-time measurement of enzyme/substrate kinetics. […]

Consider “Glycine-Glycine-Glycine (GGG)-AMC [GGG-AMC, reference compound]”, for which the “AMC fluorescence intensity change over time following addition of catB” value was “Neither GGG-AMC or GG-PABA-AMC showed any change in fluorophore intensity”.

Turning to valine-citrulline [VC], the “catB cleavage efficacy among tested enzyme-cleavable peptide sequences” value (comparison of linker sequences) was “fastest and most complete cleavage”.

Consider “Valine-Citrulline-Para(aminobenzoicacid) (VC-PABA)-AMC [VC-PABA-AMC]”, for which the “AMC fluorescence intensity change over time following addition of catB” value was “rapidly increased”.
